The subject of one assay is NCI-H460. Description: Cytotoxicity against human NCI-H460 cells assessed as growth inhibition by MTT assay. Format: functional, cell-based. (Tetrazolium assays rely on reduction of a dye to a coloured formazan, in cell work by metabolically active cells.)
Another assay deals with COLO 205. Briefly: Cytotoxicity against human COLO205 cells assessed as growth inhibition by MTT assay. It counts as functional, cell-based.
The next assay deals with K562. Description: Cytotoxicity against human K562 cells assessed as growth inhibition after 72 hrs by CCK-8 assay. It counts as functional, cell-based. Conditions: K562, 72 h.
A further assay concerns A-431. Description: Cytotoxicity against human A431 cells assessed as growth inhibition after 72 hrs by CCK-8 assay. Format: functional, cell-based. Conditions: A-431, 72 h.
The next assay relates to HepG2. Briefly: Cytotoxicity against human HepG2 cells assessed as growth inhibition after 72 hrs by CCK-8 assay. Format: functional, cell-based. Conditions: HepG2, 72 h.
The test system of a further assay is HeLa. Description: Cytotoxicity against human HeLa cells assessed as growth inhibition after 72 hrs by CCK-8 assay. It counts as functional, cell-based.
A short description of assay [1]: Cytotoxicity against human MDA-MB-435S cells assessed as growth inhibition after 72 hrs by CCK-8 assay. Format: functional, cell-based.
Assay [2] has as its target T1, Tubulin (Homo sapiens) (UniProt P68371+Q9H4B7+P0DPH7+P68366+Q13509+Q71U36+P04350+Q3ZCM7+P07437+P68363+Q9BQE3+Q6PEY2+Q13885+Q9BVA1+Q9BUF5). Briefly: Inhibition of tubulin in human NCI-H460 cells assessed as depolymerization of microtubule cytoskeleton after 8 hrs by immunofluorescence technique. Format: cell-based.
Assay [3] addresses T1, Tubulin (Homo sapiens). Briefly: Inhibition of tubulin in human NCI-H460 cells assessed as reduction in spindles formation at 100 nM after 8 hrs by immunofluorescence technique. It counts as cell-based.

Activity calls are given as the source filed them. The calls are words filed in the database; no cut-off is given here.

Take `O=C(Cc1ccccc1)Nc1nc2cc(Oc3ccccc3)ccc2[nH]1`: the IC50 was above 10000 nM in the assay on NCI-H460 and 11400 nM in the assay with COLO 205.

Consider `COc1cc2c(c(OC)c1OC)-c1ccc(OC)c(=O)cc1[C@@H](NC(C)=O)CC2` [COLCHICINE], for which the IC50 in the assay with NCI-H460 was 21 nM; in the assay on COLO 205 it was 3 nM; in the assay with K562 it was 1 nM; with A-431 it was 8 nM; with HepG2, 1710 nM; in the assay on HeLa, 704 nM. In addition, in assay [1], the IC50 was found to be 7 nM.

With `CC(=O)O[C@H]1C(=O)[C@@]2(C)[C@H]([C@H](OC(=O)c3ccccc3)[C@]3(O)C[C@H](OC(=O)[C@H](O)[C@@H](NC(=O)c4ccccc4)c4ccccc4)C(C)=C1C3(C)C)[C@]1(OC(C)=O)CO[C@@H]1C[C@@H]2O` [PACLITAXEL], the IC50 came to 10 nM with NCI-H460; 3 nM in the assay with COLO 205; 4 nM with K562; 7 nM in the assay with A-431; 990 nM in the assay on HepG2; 410 nM with HeLa. In assay [1], the IC50 is 9 nM.

Turning to `CNC(=O)Nc1nc2cc(Oc3cccc(C#N)c3)ccc2[nH]1`, the Activity result at Tubulin (Homo sapiens) [2] is “Dose-dependent effect”. The outcome at Tubulin (Homo sapiens) [3] was Active.

For orientation: IC50 means the concentration at which inhibition is half-maximal.

The values above are taken from ChEMBL document CHEMBL3352382, “New benzimidazole-2-urea derivates as tubulin inhibitors” (Bioorg Med Chem Lett, 2014).
